Molecular target: T1, CDK11 (Inactive) (Homo sapiens, UniProt Q9BWU1)
T1 construct: purchased Thermo Fisher Scientific (Life Technologies) SelectScreen
Assay: SelectScreen LanthaScreen
Assay type: binding
Conditions: 1 µM
Method in brief: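 Percent values come from Thermo SelectScreen profiling of NU5455, combining activity and binding assays. CSF1R was run in Z'LYTE format at Km app ATP, and CAMK1 in Adapta format with ATP listed at 10.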

T1 sequence (Q9BWU1 whole entry): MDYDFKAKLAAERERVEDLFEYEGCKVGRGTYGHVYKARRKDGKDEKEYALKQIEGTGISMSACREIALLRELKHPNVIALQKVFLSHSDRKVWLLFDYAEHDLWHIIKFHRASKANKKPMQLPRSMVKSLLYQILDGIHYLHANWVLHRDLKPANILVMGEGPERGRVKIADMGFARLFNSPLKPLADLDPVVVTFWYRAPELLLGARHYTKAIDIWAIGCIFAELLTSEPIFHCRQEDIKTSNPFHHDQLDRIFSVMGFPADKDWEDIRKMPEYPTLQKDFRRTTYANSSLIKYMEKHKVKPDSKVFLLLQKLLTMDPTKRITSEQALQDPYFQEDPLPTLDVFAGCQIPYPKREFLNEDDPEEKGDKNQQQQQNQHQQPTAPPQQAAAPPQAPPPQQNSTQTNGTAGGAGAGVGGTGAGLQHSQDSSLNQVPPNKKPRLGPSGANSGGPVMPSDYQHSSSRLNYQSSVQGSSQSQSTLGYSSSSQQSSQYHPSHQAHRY

Which “% displacement” value does the source give for `CN(C(=O)CN1CCOCC1)c1ccc2sc3c(-c4cccc5c(=O)cc(N6CC7CCC(C6)O7)oc45)cccc3c2c1` [NU5455] here?
The value was 1.7%.
